Measurements as given in PMC11483378, “Triazole-Based Thiamine Analogues as Inhibitors of Thiamine Pyrophosphate-Dependent Enzymes: 1,3-Dicarboxylate for Metal Binding” (ACS Omega, 2024).
Several values for one entry are separate records, joined by “and”; a condition that tells them apart may be missing. Equal values may be shown once. Read-outs that look alike come from different tables or passages of the source.

Experiments:
E. coli OGDH E1 = E. coli OGDH E1 (Escherichia coli, UniProt P0AFG3); assay: E. coli OGDH E1 inhibitory activity assay (DCPIP reduction); assay type: biochemical
E. coli OGDH E1, sequence (P0AFG3 whole entry): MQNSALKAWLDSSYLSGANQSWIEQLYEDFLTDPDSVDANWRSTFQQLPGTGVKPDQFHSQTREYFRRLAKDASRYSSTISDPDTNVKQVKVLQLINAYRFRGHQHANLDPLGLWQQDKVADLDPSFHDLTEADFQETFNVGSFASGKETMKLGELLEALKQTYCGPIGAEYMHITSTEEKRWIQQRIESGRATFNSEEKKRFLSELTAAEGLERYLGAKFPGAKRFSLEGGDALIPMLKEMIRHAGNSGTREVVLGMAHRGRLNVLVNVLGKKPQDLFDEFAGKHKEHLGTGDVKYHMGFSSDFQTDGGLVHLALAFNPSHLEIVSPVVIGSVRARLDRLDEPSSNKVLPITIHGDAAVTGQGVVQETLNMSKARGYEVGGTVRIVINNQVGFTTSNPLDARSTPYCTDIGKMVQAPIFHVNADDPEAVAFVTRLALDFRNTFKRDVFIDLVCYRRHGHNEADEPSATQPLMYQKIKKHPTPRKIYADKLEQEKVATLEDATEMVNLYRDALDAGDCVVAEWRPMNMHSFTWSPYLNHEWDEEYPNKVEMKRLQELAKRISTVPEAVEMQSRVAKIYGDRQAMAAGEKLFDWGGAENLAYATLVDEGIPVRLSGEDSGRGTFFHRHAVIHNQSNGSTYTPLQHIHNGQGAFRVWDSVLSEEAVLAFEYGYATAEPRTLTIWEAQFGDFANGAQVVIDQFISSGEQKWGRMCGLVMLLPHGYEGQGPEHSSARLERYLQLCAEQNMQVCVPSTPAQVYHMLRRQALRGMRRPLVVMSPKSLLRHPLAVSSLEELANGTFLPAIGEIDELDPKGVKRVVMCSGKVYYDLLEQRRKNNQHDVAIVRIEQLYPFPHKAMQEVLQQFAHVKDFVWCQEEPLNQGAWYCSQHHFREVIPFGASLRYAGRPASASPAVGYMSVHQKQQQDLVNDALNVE
Method: E. coli OGDH E1 was from material donated by R. Frank. E. coli OGDH E1 activity was determined by monitoring DCPIP reduction at 600 nm using a microplate reader (CLARIOstar) and conducted as described[5] with some modifications. […] The reaction buffer (50 mM KH2PO4 and 2 mM MgCl2, pH 7) contained TPP at specified concentrations, 0.5 mM DCPIP, and 6.7 mg/mL E. coli OGDH E1. The reaction mixture was preincubated at 37 °C with the inhibitor for 60 min, and then the reaction was initiated by adding α-ketoglutarate to a final concentration of 10 mM. To determine the IC50, the TPP concentration was set at 60 μM with varying inhibitor concentrations. Specific activity was calculated using the molar extinction coefficient of DCPIP, 21 mM^–1 cm^–1.[28] The IC50 values were calculated from nonlinear regression curve fitting using GraphPad Prism.
(§1) Enzyme inhibitory activity assays – methods and results (Figures S1-4) […]
(§2) The compound […]
E. coli OGDH E1 inhibitory activity assay. E. coli OGDH E1 was from material donated by R. Frank. E. coli OGDH E1 activity was determined by monitoring DCPIP reduction at 600 nm using a microplate reader (CLARIOstar) and conducted as described3 with some modifications. The percentage inhibition of compounds against E. coli OGDH E1 was assayed at 250 μM. The reaction buffer (50 mM KH 2PO4 and 2 mM MgCl2, pH 7) contained TPP at specified concentrations, 0.5 mM DCPIP, and 6.7 mg/ml E. coli OGDH E1. The reaction mixture was preincubated at 37 °C with the inhibitor for 60 min, then reaction was initiated by adding α-ketoglutarate to a final concentration of 10 mM. To determine the IC50, TPP concentration was set at 60 µM with varying inhibitor concentrations. Specific activity was […]

S. cerevisiae PDC = molecular target: T1, S. cerevisiae PDC (Saccharomyces cerevisiae, UniProt P06169); assay: S. cerevisiae PDC inhibitory activity assay (DCPIP reduction); assay type: biochemical; settings: for % Inhibition (5:1): [Compound] = 750 μM, [TPP] = 150 μM; for inhibition at 750 µM: [Compound] = [TPP] = 750 μM, read-out: % Inhibition (1:1)
T1 construct: purchased Sigma
T1 sequence (P06169 2-563 limits assumed): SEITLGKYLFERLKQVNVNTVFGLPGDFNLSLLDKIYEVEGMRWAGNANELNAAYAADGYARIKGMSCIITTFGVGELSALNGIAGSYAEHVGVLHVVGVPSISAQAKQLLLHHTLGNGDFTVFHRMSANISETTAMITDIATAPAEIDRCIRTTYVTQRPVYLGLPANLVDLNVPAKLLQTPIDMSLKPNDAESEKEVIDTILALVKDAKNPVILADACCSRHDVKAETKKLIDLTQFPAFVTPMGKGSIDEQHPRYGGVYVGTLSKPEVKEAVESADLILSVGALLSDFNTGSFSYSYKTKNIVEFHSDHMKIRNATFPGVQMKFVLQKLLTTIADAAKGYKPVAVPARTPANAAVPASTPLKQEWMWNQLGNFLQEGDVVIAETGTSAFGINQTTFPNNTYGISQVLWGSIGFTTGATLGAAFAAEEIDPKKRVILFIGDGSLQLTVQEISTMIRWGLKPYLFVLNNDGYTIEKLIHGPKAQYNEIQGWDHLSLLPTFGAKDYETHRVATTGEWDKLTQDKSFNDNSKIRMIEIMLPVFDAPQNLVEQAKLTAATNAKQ
Method: S. cerevisiae PDC was purchased from Sigma. S. cerevisiae PDC activity was determined by monitoring DCPIP reduction at 600 nm using a microplate reader (CLARIOstar) and conducted as described[5] with some modifications. […] The reaction buffer (50 mM KH2PO4 and 1 mM MgCl2, pH 7) contained TPP at specified concentrations, 0.27 mM DCPIP, and 0.15 mg/mL S. cerevisiae PDC. The reaction mixture was preincubated at 37 °C with the inhibitor for 60 min, and then the reaction was initiated by adding pyruvate to a final concentration of 70 mM. […] Specific activity was calculated using the molar extinction coefficient of DCPIP, 21 mM^–1 cm^–1.[28] The IC50 values were calculated from nonlinear regression curve fitting using GraphPad Prism.
as §1, §2
S. cerevisiae PDC inhibitory activity assay. S. cerevisiae PDC was purchased from Sigma. S. cerevisiae PDC activity was determined by monitoring DCPIP reduction at 600 nm using a microplate reader (CLARIOstar) and conducted as described3 with some modifications. The percentage inhibition of compounds against S. cerevisiae PDC was assayed at 750 μM. The reaction buffer (50 mM KH 2PO4 and 1 mM MgCl2, pH 7) contained TPP at specified concentrations, 0.27 mM DCPIP, and 0.15 mg/ml S. cerevisiae PDC. The reaction mixture was preincubated at 37 °C with the inhibitor for 60 min, then reaction was initiated by adding pyruvate to a final concentration of 70 mM. To determine the IC50, TPP concentration was set at 150 µM with varying inhibitor concentrations. Specific activity was […]
calculated from non-linear regression curve fitting using GraphPad Prism. […]

[1] = [Compound] = 250 μM, [TPP] = 50 μM
[2] = [Compound] = [TPP] = 250 μM; read-out: % Inhibition (1:1)
[3] = [TPP] = 60 µM; read-out: IC50 (μM ± SEM)
[4] = calculated from KM(TPP) 3 µM using [TPP]/IC50 = KM(TPP)/KI; read-out: KI
[5] = calculated from KM(TPP) 3 µM using [TPP]/IC50 = KM(TPP)/KI
[6] = read-out: IC50 (μM ± SEM); [TPP] = 60 µM
[7] = calculated from KM(TPP) 15 µM using [TPP]/IC50 = KM(TPP)/KI
[8] = read-out: IC50 (μM ± SEM), [TPP] = 150 µM

Compound | % Inhibition (5:1) (E. coli OGDH E1; [1]) [%] | inhibition at 250 µM (E. coli OGDH E1; [2]) [%] | vs TPP: affinity of the compound relative to that of TPP (= [TPP]/IC50) (E. coli OGDH E1; [TPP] = 60 µM) | IC50 (E. coli OGDH E1; [3]) [µM] | Ki (E. coli OGDH E1; [4]) [µM] | IC50 (S. cerevisiae PDC) [µM] | Ki (S. cerevisiae PDC) [µM] | % Inhibition (5:1) (S. cerevisiae PDC) [%] | inhibition at 750 µM (S. cerevisiae PDC) [%] | vs TPP: affinity of the compound relative to that of TPP (= [TPP]/IC50) (S. cerevisiae PDC; [TPP] = 150 µM) | Ki (E. coli OGDH E1; [5]) [µM] | IC50 (E. coli OGDH E1; [6]) [µM] | Ki (S. cerevisiae PDC; [7]) [µM] | IC50 (S. cerevisiae PDC; [8]) [µM]
COC(=O)C(CCCc1cn(Cc2cnc(C)nc2N)nn1)C(=O)OC [13b] | 54 ± 3 | 23 ± 4 | 0.24 | 251 ± 37 | 13 | 713 ± 139 | 71 | 52 ± 3 | 21 ± 5 | 0.21 |  |  |  | 
COC(=O)CCCCc1cn(Cc2cnc(C)nc2N)nn1 [15b] | 42 ± 4 | < 20 | 0.17 | 353 ± 29 | 18 | 789 ± 167 | 79 | 47 ± 4 | < 20 | 0.19 |  |  |  | 
COC(=O)CCCc1cn(Cc2cnc(C)nc2N)nn1 [15a] | 38 ± 3 | < 20 | 0.15 | 407 ± 73 | 20 | 883 ± 144 | 88 | 42 ± 3 | < 20 | 0.17 |  |  |  | 
Cc1ncc(Cn2cc(CCCC(=O)[O-])nn2)c(N)n1.[K+] [16a] | 49 ± 3 | < 20 | 0.19 |  |  |  |  | 55 ± 4 | 24 ± 4 | 0.26 | 16 | 316 ± 57 | 58 | 582 ± 88
COC(=O)C(CCc1cn(Cc2cnc(C)nc2N)nn1)C(=O)OC [13a] | 40 ± 3 | < 20 | 0.15 | 394 ± 65 | 20 | 939 ± 167 | 94 | 40 ± 4 | < 20 | 0.16 |  |  |  | 
Cc1ncc(Cn2cc(CCCCC(=O)[O-])nn2)c(N)n1.[K+] [16b] | 54 ± 4 | 22 ± 5 | 0.22 |  |  |  |  | 60 ± 4 | 25 ± 5 | 0.30 | 14 | 273 ± 44 | 50 | 503 ± 76
Cc1ncc(Cn2cc(CCC(C(=O)[O-])C(=O)[O-])nn2)c(N)n1.[K+].[K+] [14a] | 76 ± 5 | 36 ± 4 | 0.57 |  |  |  |  | 70 ± 2 | 31 ± 3 | 0.47 | 5.3 | 105 ± 11 | 32 | 319 ± 57
Cc1ncc(Cn2cc(CCCC(C(=O)[O-])C(=O)[O-])nn2)c(N)n1.[K+].[K+] [14b] | 83 ± 4 | 47 ± 3 | 0.90 |  |  |  |  | 79 ± 3 | 42 ± 3 | 0.7 and 0.71 | 3.4 | 67 ± 9 | 21 | 211 ± 39
